In US20230118795A1, “ARYL OR HETEROARYL PYRIDONE OR PYRIMIDINE DERIVATIVE, PREPARATION METHOD AND USE THEREOF” (SUZHOU ZELGEN BIOPHARMACEUTICALS CO., LTD., priority 2020, published 2023):

The compounds below were run on NCI-H358 (KRAS^G12C mutation) cell (assay: Cell assay of antiproliferative activity against NCI-H358 cell (Celltiter-Glo, 5 days)). Details: 5 days incubation.
Type: cell-based
Procedure: Cell Assay of Antiproliferative Activity of Compounds Against NCI-H358 (KRAS^G12C Mutation) Cell.
40 μL phosphate buffer was added to the outer wells of the 384 microplate, and 40 μL cell suspension to be tested was added to the other wells. Then the microplate was incubated in a carbon dioxide incubator overnight.
The compounds to be tested were gradiently diluted, each compound was performed 10 concentration gradients (diluted from 50 μM to 0.003 μM) and added 100 nL to the corresponding wells in the microplate. After addition, 40 μl of phosphate buffer was added to each well in rows A and P and columns 1 and 24, and then the microplate was incubated in a carbon dioxide incubator for 5 days.
20 μL of Promega Celltiter-Glo reagent was added to each well of the microplate, and then the luminescence signal was stabilized by oscillating at room temperature for 10 min. Then PekinElmer Envision multi-label analyzer was used to read.
Finally, GraphPad Prism software was used to calculate the IC50 value of the compound and the fitting curve was drawn.
Anti-proliferative activity of the compounds of the present invention against NCI-H358 (KRAS^G12C mutation) cell was shown in Table 1.

SMILES	IC50 [nM]
C=CC(=O)N1CCN(c2nc(=O)n(-c3c(S(C)(=O)=O)ccnc3C(C)C)c3nc(-c4c(O)cccc4F)c(F)cc23)[C@@H](C)C1 [Example 18, 4-((S)-4-acryloyl-2-methylpiperazin-1-yl)-6-fluoro-7-(2-fluoro-6-hydroxyphenyl)-1-(2-isopropyl-4-(methylsulfonyl)pyridin-3-yl)pyridino[2,3-d]pyrimidin-2 (1H)-one]	30
C=CC(=O)N1CCN(c2nc(=O)n(-c3c(C(C)C)ccnc3S(C)(=O)=O)c3nc(-c4c(F)cccc4OC(C)=O)c(F)cc23)[C@@H](C)C1 [Example 24]	28
C=CC(=O)N1CCN(c2nc(=O)n(-c3c(C4CCC4)cccc3S(C)(=O)=O)c3nc(-c4c(O)cccc4F)c(F)cc23)[C@@H](C)C1 [Example 25, 4-((S)-4-acryloyl-2-methylpiperazin-1-yl)-1-(2-cyclobutyl-6-(methylsulfonyl)phenyl)-6-fluoro-7-(2-fluoro-6-hydroxyphenyl) pyridino[2,3-d]pyrimidin-2(1H)-one]	9
C=CC(=O)N1CCN(c2nc(=O)n(-c3c(C(C)C)cccc3S(C)(=O)=O)c3nc(-c4ccccc4Cl)c(F)cc23)[C@@H](C)C1 [Example 30, (S)-4-(4-acryloyl-2-methylpiperazin-1-yl)-7-(2-chlorophenyl)-6-fluoro-1-(2-isopropyl-6-(methylsulfonyl)phenyl) pyridino[2,3-d]pyrimidin-2(1H)-one]	18
C=CC(=O)N1CCN(c2nc(=O)n(-c3c(C(C)C)cccc3S(C)(=O)=O)c3nc(-c4c(F)cccc4OC(C)=O)c(F)cc23)[C@@H](C)C1 [Example 31, 2-(4-((S))-4-acryloyl-2-methylpiperazin-1-yl)-6-fluoro-1-(2-isopropyl-6-(methylsulfonyl)phenyl)-2-oxo-1,2-dihydropyridino[2,3-d]pyrimidin-7-yl)-3-fluorophenyl acetate]	8

Same assay, conditions: Homo sapiens, NCI-H358, 120 h, 5 days incubation

SMILES	IC50 [nM]
C=CC(=O)N1CCN(c2nc(=O)n(-c3c(C)cccc3S(=O)(=O)C3CC3)c3nc(-c4c(O)cccc4F)c(F)cc23)[C@@H](C)C1 [Example 7, 4-((S)-4-acryloyl-2-methylpiperazin-1-yl)-1-(2-(cyclopropylsulfonyl)-6-methylphenyl)-6-fluoro-7-(2-fluoro-6-hydroxyphenyl) pyridino [2,3-d] pyrimidin-2(1H)-one]	240
C=CC(=O)N1CCN(c2nc(=O)n(-c3c(Cl)cccc3S(C)(=O)=O)c3nc(-c4c(O)cccc4F)c(F)cc23)[C@@H](C)C1 [Example 8, 4-((S)-4-acryloyl-2-methylpiperazin-1-yl)-1-(2-chloro-6-(methylsulfonyl)phenyl)-6-fluoro-7-(2-fluoro-6-hydroxyphenyl) pyridino [2,3-d] pyrimidin-2 (1H)-one]	170
C=CC(=O)N1CCN(c2nc(=O)n(-c3c(C)cccc3S(C)(=O)=O)c3nc(-c4c(F)cccc4C(F)F)c(F)cc23)[C@@H](C)C1 [Example 9, 4-((S)-4-acryloyl-2-methylpiperazin-1-yl)-7-(2-(difluoromethyl)-6-fluorophenyl)-6-fluoro-1-(2-methyl-6-(methylsulfonyl)phenyl) pyridino [2,3-d] pyrimidin-2 (1H)-one]	230
C=CC(=O)N1CCN(c2nc(=O)n(-c3c(C(C)C)cccc3S(C)(=O)=O)c3nc(-c4c(O)cccc4F)c(F)cc23)[C@@H](C)C1 [Example 10, 4-((S)-4-acryloyl-2-methylpiperazin-1-yl)-6-fluoro-7-(2-fluoro-6-hydroxyphenyl)-1-(2-isopropyl-6-(methylsulfonyl)phenyl) pyridino[2,3-d] pyrimidin-2(1H)-one]	10
C=CC(=O)N1CCN(c2nc(=O)n(-c3c(C)cccc3N(C)S(C)(=O)=O)c3nc(-c4c(O)cccc4F)c(F)cc23)[C@@H](C)C1 [Example 11]	180
C=CC(=O)N1C[C@H](C)N(c2nc(=O)n(-c3c(CC)cccc3S(C)(=O)=O)c3nc(-c4c(O)cccc4F)c(F)cc23)C[C@H]1C [Example 12, 4-((2S,5R)-4-acryloyl-2,5-dimethylpiperazin-1-yl)-1-(2-ethyl-6-(methylsulfonyl)phenyl)-6-fluoro-7-(2-fluoro-6-hydroxyphenyl) pyridino [2,3-d] pyrimidin-2 (1H)-one]	41
C=CC(=O)N1CCN(c2nc(=O)n(-c3c(C4CC4)cccc3S(C)(=O)=O)c3nc(-c4ccccc4F)c(F)cc23)[C@@H](C)C1 [Example 13, (S)-4-(4-acryloyl-2-methylpiperazin-1-yl)-1-(2-cyclopropyl-6-(methylsulfonyl)phenyl)-6-fluoro-7-(2-fluorophenyl) pyridin [2,3-d] pyrimidin-2(1H)-one]	15
C=CC(=O)N1CCN(c2nc(=O)n(-c3c(C)cccc3S(=O)(=O)N(C)C)c3nc(-c4c(O)cccc4F)c(F)cc23)[C@@H](C)C1 [Example 14]	360
C=CC(=O)N1CCN(c2nc(=O)n(-c3c(C4CC4)cccc3S(C)(=O)=O)c3nc(-c4c(F)cccc4F)c(F)cc23)[C@@H](C)C1 [Example 15, (S)-4-(4-acryloyl-2-methylpiperazin-1-yl)-1-(2-cyclopropyl-6-(methylsulfonyl)phenyl)-7-(2,6-difluorophenyl)-6-fluoropyridino [2,3-d] pyrimidin-2(1H)-one]	58
C=CC(=O)N1CCN(c2nc(=O)n(-c3c(C(C)C)ccnc3S(C)(=O)=O)c3nc(-c4c(O)cccc4F)c(F)cc23)[C@@H](C)C1 [Example 16, 4-((S)-4-acryloyl-2-methylpiperazin-1-yl)-6-fluoro-7-(2-fluoro-6-hydroxyphenyl)-1-(4-isopropyl-2-(methylsulfonyl)pyridin-3-yl) pyridino [2,3-d] pyrimidin-2 (1H)-one]	12
C=CC(=O)N1CCN(c2nc(=O)n(-c3c(C4CC4)cccc3S(C)(=O)=O)c3nc(-c4ccccc4Cl)c(F)cc23)[C@@H](C)C1 [Example 17, (S)-4-(4-acryloyl-2-methylpiperazin-1-yl)-7-(2-chlorophenyl)-1-(2-cyclopropyl-6-(methylsulfonyl)phenyl)-6-fluoropyridino [2,3-d] pyrimidin-2(1H)-one]	31
C=CC(=O)N1CCN(c2nc(=O)n(-c3c(C(C)C)ccnc3S(C)(=O)=O)c3nc(-c4c(F)cccc4OC)c(F)cc23)[C@@H](C)C1 [Example 19, 4-((S)-4-acryloyl-2-methylpiperazin-1-yl)-6-fluoro-7-(2-fluoro-6-methoxyphenyl)-1-(4-isopropyl-2-(methylsulfonyl)pyridin-3-yl) pyridino[2,3-d]pyrimidin-2(1H)-one]	48
C=CC(=O)N1CCN(c2nc(=O)n(-c3c(C(C)C)ccnc3S(C)(=O)=O)c3nc(-c4ccccc4Cl)c(F)cc23)[C@@H](C)C1 [Example 20, (S)-4-(4-acryloyl-2-methylpiperazin-1-yl)-7-(2-chlorophenyl)-6-fluoro-1-(4-isopropyl-2-(methylsulfonyl)pyridin-3-yl) pyridino[2,3-d] pyrimidin-2(1H)-one]	23
C=C(F)C(=O)N1CCN(c2nc(=O)n(-c3c(C(C)C)cccc3S(C)(=O)=O)c3nc(-c4c(O)cccc4F)c(F)cc23)[C@@H](C)C1 [Example 21]	1200
C=CC(=O)N1CCN(c2nc(=O)n(-c3c(C(C)C)ccnc3S(C)(=O)=O)c3nc(-c4ccc(F)cc4Cl)c(F)cc23)[C@@H](C)C1 [Example 22, (S)-4-(4-acryloyl-2-methylpiperazin-1-yl)-7-(2-chloro-4-fluorophenyl)-6-fluoro-1-(4-isopropyl-2-(methylsulfonyl)pyridin-3-yl) pyridino[2,3-d]pyrimidin-2(1H)-one]	39
C=C(F)C(=O)N1CCN(c2nc(=O)n(-c3c(C(C)C)cccc3S(C)(=O)=O)c3nc(-c4ccccc4Cl)c(F)cc23)[C@@H](C)C1 [Example 23, (S)-7-(2-chlorophenyl)-6-fluoro-4-(4-(2-fluoroacryloyl)-2-methylpiperazin-1-yl)-1-(2-isopropyl-6-(methylsulfonyl)phenyl)pyridino[2,3-d]pyrimidin-2(1H)-one]	1100
C=CC(=O)N1CCN(c2nc(=O)n(-c3c(C(C)C)ccnc3S(C)(=O)=O)c3nc(-c4cccc(F)c4Cl)c(F)cc23)[C@@H](C)C1 [Example 26, (S)-4-(4-acryloyl-2-methylpiperazin-1-yl)-7-(2-chloro-3-fluorophenyl)-6-fluoro-1-(4-isopropyl-2-(methylsulfonyl)pyridin-3-yl) pyridino[2,3-d] pyrimidin-2(1H)-one]	18
C=CC(=O)N1CCN(c2nc(=O)n(-c3c(C(C)C)ccnc3S(C)(=O)=O)c3nc(-c4c(O)cccc4Cl)c(F)cc23)[C@@H](C)C1 [Example 27, 4-((S)-4-acryloyl-2-methylpiperazin-1-yl)-7-(2-chloro-6-hydroxyphenyl)-6-fluoro-1-(4-isopropyl-2-(methylsulfonyl)pyridin-3-yl) pyridino[2,3-d] pyrimidin-2(1H)-one]	30
C=CC(=O)N1CCN(c2nc(=O)n(-c3c(C(C)C)ccnc3S(C)(=O)=O)c3nc(-c4c(F)cccc4Cl)c(F)cc23)[C@@H](C)C1 [Example 28, 4-((S)-4-acryloyl-2-methylpiperazin-1-yl)-7-(2-chloro-6-fluorophenyl)-6-fluoro-1-(4-isopropyl-2-(methylsulfonyl)pyridin-3-yl) pyridino[2,3-d] pyrimidin-2(1H)-one]	26
C=CC(=O)N1CCN(c2nc(=O)n(-c3c(C(C)C)cncc3S(C)(=O)=O)c3nc(-c4c(O)cccc4F)c(F)cc23)[C@@H](C)C1 [Example 29]	53
